{"source": "patent US20180201647A1", "about": "“Peptoid” (The University of Durham, priority 2015, published 2018)", "type_in_all_cases": "cell-based", "key": {"[1]": {"system": "Pseudomonas aeruginosa laboratory strain PAO2", "experimental": "(§1) Species used in MIC assays included gram-negative Escherichia coli K12 W3110, Pseudomonas aeruginosa laboratory strain PAO2 and Serratia marcescens laboratory strain and gram-positive Staphylococcus aureus NCTC 6571 and Micrococcus luteus laboratory strain.\n(§2) Bacterial cultures were prepared by streaking the bacterial strains on to agar plates with an inoculation loop and incubating overnight at 37° C. A single colony was then selected and placed in 5 mL of Iso-Sensitest broth using an inoculation loop and incubated at 37° C. with shaking overnight.\n(§3) MIC values were attained according to the protocol described by J. M. Andrews et al. [J. M. Andrews, J. Antimicrob. Chemother., 2001, 48, 5-16] and were conducted in 96-well microtitre plates in triplicate. 10-50 μL of each overnight culture was inoculated into 1.2 mL of Iso-Sensitest broth and grown at 37° C. with shaking. […] The inoculum was diluted ten-fold with Iso-Sensitest broth before use (to ˜10^3 cfu/spot). Peptide solutions were initially dissolved in DMSO (5 mg mL^−1) and then diluted further with Iso-Sensitest broth to achieve a concentration range of 4 mgL^−1 to 512 mgL^−1 using 2-fold serial dilutions. Samples were vortexed between dilutions where necessary to aid dissolution. 50 μL of inoculum and 50 μL of peptide solution were added to each test well to achieve a final concentration range of 2 mgL^−1 to 256 mgL^−1. Separate dilutions of ampicillin and DMSO were made up in a similar manner to act as a positive antibacterial control and a +DMSO control, respectively. 50 μL of inoculum and 50 μL of Iso-Sensitest broth were used as a positive control and 100 μL of inoculum was used as a negative control. Positive and negatives controls were conducted multiple times in parallel per plate. […] Quantitative data were attained as A650nm values using a BioTek® Synergy™ H4 Hybrid Multi-Mode Microplate Reader."}, "[2]": {"system": "Staphylococcus aureus NCTC 6571", "experimental": "as §1, §2, §3"}, "[3]": {"system": "Serratia marcescens laboratory strain", "conditions": "16 h", "experimental": "as §1, §2, §3"}, "[4]": {"system": "Escherichia coli K12 W3110", "experimental": "as §1, §2, §3"}, "[5]": {"system": "E. coli (ATCC 29522) biofilm", "assay": "Single species biofilm treatment, crystal violet assay", "conditions": "100 μM peptoid, 24 hours, FIG. 17C", "experimental": "C. albicans (NCTC 3179) was subcultured aerobically on Sabouraud agar plates and propagated in yeast peptone dextrose broth. E. coli (ATCC 29522) and S. aureus (NCTC 6571) were grown on blood agar plates and propagated in brain heart infusion (BHI) broth.\nOvernight cultures of C. albicans were washed and resuspended in a modified RPMI-1640 (Sigma-Aldrich, St Louis, USA) medium to yield an inoculum of 1.0×10^6 cells/ml. Overnight cultures of S. aureus or E. coli were washed and resuspended in brain heart infusion broth (Oxoid, Basingstoke, UK) to yield an inoculum of 5.0×10^6 cells/ml. A total volume of 100 μl of each inoculum was added to microtitre plate wells (Thermo Fisher Scientific, Roskilde, Denmark). An initial biofilm was allowed to form for 4 hours. Wells were washed three times with 200 μl PBS to facilitate removal of planktonic cells and the biofilms were then treated with 100 μM of peptoids 1-4 in the appropriate broth. Plates were incubated for a further 24 hours to allow biofilm maturation. After removal of planktonic cells by washing, biofilms were quantified by the crystal violet assay or by PMA-qPCR.\nBiofilm quantification by crystal violet assay Washed biofilms were fixed with 100 μl methanol for 10 minutes. Following removal of methanol, the wells were air dried and stained with crystal violet solution (Clin-Tech Ltd, Guildford, UK) for 20 minutes at room temperature. Excess stain was removed by washing, the plate was then air dried and bound crystal violet was re-solubilised in 16 μl 33% acetic acid prior to reading at 570 nm in a microtitre plate reader (Tecan GENios, Ziirich, Switzerland)."}, "[6]": {"system": "Leishmania mexicana (M379)", "experimental": "Leishmania mexicana (M379) promastigote parasites were maintained at 26° C. in Schneider's Insect medium (Sigma-Aldrich) supplemented with heat-inactivated foetal bovine sera (FBS, 15%; Biosera Ltd). Cells were counted using a Neubauer Improved Haemocytometer. Promastigotes were transformed into axenic amastigotes by a pH and temperature shift as previously described. A culture of recently transformed (three days) promastigotes in the late log phase was transferred into Schneider's Insect medium supplemented with 20% heat-inactivated FBS (pH 5.5) at 5×10^5 parasites/mL. After 6 days, the parasites were in the metacyclic stage and used for transformation to amastigote-like forms by transfer in the same medium at 32° C. at 5×10^5 parasites/mL. After additional 5-7 days, the parasites should be in the amastigote stage and be ready for cytotoxicity studies and infections.\nCytotoxicity analyses were performed in 96-well plates (Costar, Fisher Scientific) using Alamar Blue (Invitrogen) for cell viability detection as previously described.\nPromastigote and amastigote L. mexicana were pre-incubated with the compounds in triplicate (5 mM stock solutions in DMSO; Amphotericin B was used as a positive control; untreated parasites with DMSO as a negative control) in 50 μl of the corresponding media at 4×106 mL-1 for 1 hour. Afterwards, 40 μl were removed from each well before the addition of 90 μl of the corresponding media, followed by incubation for 24 hours at 4×105 mL-1. Then, 10 μl Alamar Blue solution (Invitrogen) was added to each well for an incubation of 4 hours prior to assessing cell viability using a fluorescent plate reader (Biotek; Ex 560 nm/Em 600 nm). To investigate the effects of serum on the efficacy of the peptoids, the assay described above was modified using serum-free medium for the pre-incubation time. For these assays, the parasites were washed three times in serum-free medium before adding them to the compound solutions. All of the experiments described above were carried out on a minimum of two separate occasions to ensure a robust data set was collected."}, "[7]": {"conditions": "second figure of cell, 37° C., 16 h, Iso-Sensitest broth"}}, "note": "Where two headings read alike, the source gives them in different places. Where a SMILES comes first, the peptide text is derived from it. [ ]: non-standard residue; d: D form. Nspe = C[C@H](NCC(=O)O)c1ccccc1; NhArg = N=C(N)NCCCCNCC(=O)O; Nlys = NCCCCNCC(=O)O", "data": [{"smiles": "C[C@@H](c1ccccc1)N(CC(N)=O)C(=O)CN(C(=O)CN(CCCCN)C(=O)CN(C(=O)CN(C(=O)CN(CCCCN)C(=O)CN(C(=O)CN(C(=O)CN(CCCCNC(=N)N)C(=O)CN(C(=O)CN(C(=O)CNCCCCNC(=N)N)[C@@H](C)c1ccccc1)[C@@H](C)c1ccccc1)[C@@H](C)c1ccccc1)[C@@H](C)c1ccccc1)[C@@H](C)c1ccccc1)[C@@H](C)c1ccccc1)[C@@H](C)c1ccccc1", "note": "[Peptoid 2, (NhArg-Nspe-Nspe)2(NLys-Nspe-Nspe)2] (H-[NhArg][Nspe][Nspe][NhArg][Nspe][Nspe][Nlys][Nspe][Nspe][Nlys][Nspe][Nspe]-NH2; N-terminus assumed)", "values": [{"measurement": "MIC P. aeruginosa", "setting": "[1]; laboratory strain PAO2, 16 h", "result": 17, "unit": "µM"}, {"measurement": "MIC P. aeruginosa", "setting": "[1]; [7]", "result": 32, "unit": "mgL^−1"}, {"measurement": "MIC S. aureus", "setting": "[2]; NCTC 6571, 16 h", "result": 17, "unit": "µM"}, {"measurement": "MIC S. aureus", "setting": "[2]; [7]", "result": 32, "unit": "mgL^−1"}, {"measurement": "MIC S. marcescens", "setting": "[3]; laboratory strain", "result": 134, "unit": "µM"}, {"measurement": "MIC S. marcescens", "setting": "[3]; second figure of cell, 37° C., Iso-Sensitest broth", "result": 256, "unit": "mgL^−1"}, {"measurement": "MIC E. coli", "setting": "[4]; K12, 16 h", "result": 17, "unit": "µM"}, {"measurement": "MIC E. coli", "setting": "[4]; [7]", "result": 32, "unit": "mgL^−1"}, {"measurement": "activity against the E. coli biofilm", "setting": "[5]", "result": "strongest anti-bacterial activity"}, {"measurement": "IC50", "setting": "[6]; parasite stage not given, read-out: IC50 L. mexicana", "result": 34, "unit": "µM"}, {"measurement": "active against L. mexicana", "setting": "[6]; statement in words", "result": "active"}]}]}
